# Data reported in the supplement of paper PMC10307832.
# What was measured:
# Assay in all cases: relative viability (nuclei count vs DMSO), 5 days (fraction); higher = more cells survive
# [1] = tested on: ABC-1
# Procedure, shortened: (§1)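 Cells from lung cancer lines were seeded into 1536-well plates and, one day later, dosed by pin tool. Treatments were either a single drug or a fixed dose of an anchor drug with five library-drug doses (not always all listed) in √10 steps. After 5 days, nuclei were stained in a one-step fixation (final 0.05% Triton X-100, 1% formaldehyde, 1 ug/ml Hoechst) and counted on 4× images, and relative viability is the treated-to-vehicle nuclei ratio, as the median of duplicate plates.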
# [2] = tested on: COR-L23
# Procedure, shortened: as §1
# [3] = tested on: ChaGo-K-1
# Procedure, shortened: as §1
# [4] = tested on: NCI-H1437
# Procedure, shortened: as §1
# [5] = tested on: NCI-H1623
# Procedure, shortened: as §1
# [6] = tested on: NCI-H1648
# Procedure, shortened: as §1
# [7] = tested on: NCI-H1651
# Procedure, shortened: as §1
# [8] = tested on: SK-MES-1
# Procedure, shortened: as §1
# [9] = tested on: SW 1573
# Procedure, shortened: as §1
smiles,measurement,setting,value
Nc1ccn([C@@H]2O[C@H](CO)[C@@H](O)[C@@H]2O)c(=O)n1 [Cytarabine] + COc1cccc2cc(-c3nc([C@H]4CC[C@H](C(=O)O)CC4)n4ncnc(N)c34)[nH]c12 [OSI-027] (partner 0.5 µM),relative viability,[1]; first compound 0.005 µM,0.41
same,relative viability,[1]; first compound 0.01581 µM,0.458
same,relative viability,[1]; first compound 0.05 µM,0.463
same,relative viability,[1]; first compound 0.1581 µM,0.379
same,relative viability,[1]; first compound 0.5 µM,0.259
same,relative viability,[2]; first compound 0.005 µM,0.396
same,relative viability,[2]; first compound 0.01581 µM,0.546
same,relative viability,[2]; first compound 0.05 µM,0.546
same,relative viability,[2]; first compound 0.1581 µM,0.16
same,relative viability,[2]; first compound 0.5 µM,0.116
same,relative viability,[3]; first compound 0.005 µM,0.465
same,relative viability,[3]; first compound 0.01581 µM,0.353
same,relative viability,[3]; first compound 0.05 µM,0.247
same,relative viability,[3]; first compound 0.1581 µM,0.165
same,relative viability,[3]; first compound 0.5 µM,0.212
same,relative viability,[4]; first compound 0.005 µM,0.797
same,relative viability,[4]; first compound 0.01581 µM,0.584
same,relative viability,[4]; first compound 0.05 µM,0.541
same,relative viability,[4]; first compound 0.1581 µM,0.233
same,relative viability,[4]; first compound 0.5 µM,0.211
same,relative viability,[5]; first compound 0.005 µM,0.372
same,relative viability,[5]; first compound 0.01581 µM,0.376
same,relative viability,[5]; first compound 0.05 µM,0.277
same,relative viability,[5]; first compound 0.1581 µM,0.258
same,relative viability,[5]; first compound 0.5 µM,0.243
same,relative viability,[6]; first compound 0.005 µM,0.238
same,relative viability,[6]; first compound 0.01581 µM,0.266
same,relative viability,[6]; first compound 0.05 µM,0.246
same,relative viability,[6]; first compound 0.1581 µM,0.214
same,relative viability,[6]; first compound 0.5 µM,0.263
same,relative viability,[7]; first compound 0.005 µM,0.792
same,relative viability,[7]; first compound 0.01581 µM,0.675
same,relative viability,[7]; first compound 0.05 µM,0.81
same,relative viability,[7]; first compound 0.1581 µM,0.442
same,relative viability,[7]; first compound 0.5 µM,0.298
same,relative viability,[8]; first compound 0.005 µM,0.343
same,relative viability,[8]; first compound 0.01581 µM,0.282
same,relative viability,[8]; first compound 0.05 µM,0.18
same,relative viability,[8]; first compound 0.1581 µM,0.297
same,relative viability,[8]; first compound 0.5 µM,0.267
same,relative viability,[9]; first compound 0.005 µM,0.735
same,relative viability,[9]; first compound 0.01581 µM,0.49
same,relative viability,[9]; first compound 0.05 µM,0.466
same,relative viability,[9]; first compound 0.1581 µM,0.131
same,relative viability,[9]; first compound 0.5 µM,0.0871
